Results: patent US7163957B2, “3-(Cyclopenten-1-yl)-benzyl-or 3-(cyclopenten-1-yl)-heteroarylmethyl-amine derivatives and use thereof as medicines for treating schizophrenia” (Pierre Fabre Medicament, priority 2002, dated 2007)
Counter-ions that a name gives are not always drawn.

Tests used:
D2 receptors [1] = molecular target: D2 receptors (Homo sapiens, UniProt P14416); experiment: Affinity for the D2 receptors, displacement of (3H) YM-09151-2; type: binding; conditions: for Ki: displacement of (3H) YM-09151-2, mean of at least 3 experiments, read-out: D2 pKi (converted)
D2 receptors (Homo sapiens, UniProt P14416), sequence (P14416 whole entry): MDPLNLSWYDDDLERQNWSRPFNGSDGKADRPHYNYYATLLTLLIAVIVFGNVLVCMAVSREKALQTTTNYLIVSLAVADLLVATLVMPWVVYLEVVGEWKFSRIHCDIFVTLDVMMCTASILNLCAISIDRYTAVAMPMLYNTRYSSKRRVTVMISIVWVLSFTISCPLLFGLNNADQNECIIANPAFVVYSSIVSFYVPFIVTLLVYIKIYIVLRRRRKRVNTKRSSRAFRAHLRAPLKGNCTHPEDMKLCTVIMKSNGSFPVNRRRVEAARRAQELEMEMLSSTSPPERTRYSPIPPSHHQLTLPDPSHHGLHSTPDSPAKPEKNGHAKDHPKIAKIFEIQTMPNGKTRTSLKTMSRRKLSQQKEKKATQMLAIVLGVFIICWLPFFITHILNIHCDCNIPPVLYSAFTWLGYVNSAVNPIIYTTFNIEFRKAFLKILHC
Text: 1—Measurement of the affinity of the compounds of the invention for the D2 receptors.
The pKi values, (pKi=−log Ki), are given in the form of the mean±SEM of at least 3 experiments.

5-HT1A receptors = molecular target: T1, 5-HT1A receptors (Homo sapiens, UniProt P08908); experiment: Affinity for the 5-HT1A receptors, displacement of [3H]8-OH-DPAT; type: binding; conditions: for Ki: displacement of [3H]8-OH-DPAT, mean of at least 3 experiments, read-out: 5-HT1A pKi (converted)
T1 sequence (P08908 1-422): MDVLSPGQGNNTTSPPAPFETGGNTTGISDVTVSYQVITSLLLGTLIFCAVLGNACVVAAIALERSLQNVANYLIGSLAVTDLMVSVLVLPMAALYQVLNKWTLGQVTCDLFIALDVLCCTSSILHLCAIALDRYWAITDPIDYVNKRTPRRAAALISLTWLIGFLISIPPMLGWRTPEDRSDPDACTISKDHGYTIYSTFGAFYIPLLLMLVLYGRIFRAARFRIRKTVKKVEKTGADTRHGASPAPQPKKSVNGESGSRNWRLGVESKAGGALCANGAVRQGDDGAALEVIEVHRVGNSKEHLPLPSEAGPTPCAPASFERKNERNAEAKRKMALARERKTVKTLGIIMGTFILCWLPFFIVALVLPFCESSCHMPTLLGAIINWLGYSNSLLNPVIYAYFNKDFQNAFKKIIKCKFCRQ
Procedure: 2—Measurement of the affinity of the compounds of the invention for the 5-HT1A receptors.
The affinity in vitro of the compounds of the invention for the receptors of the 5-HT1A subtype was determined by measuring the displacement of [^3H]8-OH-DPAT (TRK 850; 160-240 Ci/mmol).
The pKi values, (pKi =−log Ki), are given in the form of the mean±SEM of at least 3 experiments.

D2 receptors [2] = experiment: Antagonist activity of the D2 receptors in vivo: inhibition of the behavior induced by methylphenidate; conditions: Rattus norvegicus, rats, oral route, read-out: Normalization ED50
Text: 3—Evaluation of the antagonist activity of the D2 receptors in vivo.

catalepsy = experiment: Cataleptigenic effects (catalepsy); type: in vivo; conditions: rats; for ED50: rat, in vivo, oral route; for cataleptigenic effects (in words): high doses (i.e. 40 mg/kg)
Text: 4—Evaluation of the cataleptigenic effects of the compounds of the invention.

| SMILES | melting point | affinity for the 5-HT1A receptors (in words) (5-HT1A receptors) | ED50 (D2 receptors [2]) | ED50 (catalepsy) | also measured |
| --- | --- | --- | --- | --- | --- |
| CC1(C)Cc2cccc(OCCNCc3cccc(C4=CCCC4)c3)c2O1 (as salt: fumarate) [Compound 1a, [2-(2,2-Dimethyl-2,3-dihydrobenzofuran-7-yloxy)ethyl]-(3-cyclopenten-1-ylbenzyl)amine] | 146 °C | – | – | – | – |
| CC1(C)Cc2cccc(OCCNCc3cncc(C4=CCCC4)c3)c2O1 (as salt: fumarate) [Compound 1b, [2-(2,2-Dimethyl-2,3-dihydrobenzofuran-7-yl-oxy)ethyl]-(5-cyclopenten-1-ylpyridin-3-ylmethyl)amine] | 141 °C | – | – | – | – |
| C1=C(c2cccc(CNCCOc3cccc4ccoc34)c2)CCC1 (as salt: fumarate) [Compound 1c, [2-(Benzofuran-7-yloxy)ethyl]-(3-cyclopenten-1-ylbenzyl)amine] | 126 °C | – | – | – | – |
| Cc1cc2cccc(OCCNCc3cccc(C4=CCCC4)c3)c2o1 (as salt: fumarate) [Compound 1d, [2-(2-Methylbenzofuran-7-yloxy)ethyl]-(3-cyclopenten-1-ylbenzyl)amine] | 133 °C | – | – | – | – |
| C1=C(c2cccc(CNCCOc3cccc4c3OCC4)c2)CCC1 (as salt: fumarate) [Compound 1e, [2-(2,3-Dihydrobenzofuran-7-yloxy)ethyl]-(3-cyclopenten-1-ylbenzyl)amine] | 118 °C | – | – | – | – |
| CC1(C)Cc2cccc(OCCNCc3cccc(C4=C(F)CCC4)c3)c2O1 (as salt: fumarate) [Compound 1g, [2-(2,2-Dimethyl-2,3-dihydrobenzofuran-7-yl-oxy)ethyl]-[3-(2-fluorocyclopenten-1-yl)benzyl]amine] | 145 °C | – | – | – | – |
| C1=C(c2cccc(CNCCOc3cccc4c3OC3(CC3)C4)c2)CCC1 (as salt: maleate) [Compound 1f] | 180 °C | – | – | – | – |
| CC1(C)Cc2cccc(OCCNCc3cccc(C4=CCCC4)c3)c2O1 [Compound 1a, [2-(2,2-Dimethyl-2,3-dihydrobenzofuran-7-yloxy)ethyl]-(3-cyclopenten-1-ylbenzyl)amine] | – | high affinity | 1.3 mg/kg | > 40 mg/kg | Ki (D2 receptors [1]): 0.316 nM; Ki (5-HT1A receptors): 6.31 nM; cataleptigenic effects (in words) (catalepsy): free of any cataleptigenic effects |
| C1=C(c2cccc(CNCCOc3cccc4c3OC3(CC3)C4)c2)CCC1 [Compound 1f] | – | high affinity | 0.63 mg/kg | > 40 mg/kg | Ki (D2 receptors [1]): 0.631 nM; Ki (5-HT1A receptors): 6.31 nM; cataleptigenic effects (in words) (catalepsy): free of any cataleptigenic effects |
| Cc1nc2n(c(=O)c1CCN1CCC(c3noc4cc(F)ccc34)CC1)CCCC2 [Risperidone, risperidone, reference compound] | – | low affinity | 6.5 mg/kg | – | affinity for the D2 receptors (in words) (D2 receptors [1]): good affinity |
| O=C(CCCN1CCC(O)(c2ccc(Cl)cc2)CC1)c1ccc(F)cc1 [haloperidol, reference compound] | – | low affinity | 0.46 mg/kg | 0.92 mg/kg | – |
| CNc1cc(OC)c(C(=O)NC2CCN(Cc3ccccc3)C2C)cc1Cl (stereo not shown) [nemonapride, reference compound] | – | high affinity | 1.5 mg/kg | 5 mg/kg | – |
